What is called inhibition is the relative decrease from the control value, in per cent. In general, IC50 refers to the concentration at which inhibition is half-maximal.

The nature of assay [1]: yeast lifespan-shortening chemical project counter-assay, dose-response inhibition of growth under permissive conditions (AID 850).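 Further: growth read as optical density after one day of incubation.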 The conditions noted are these: Saccharomyces cerevisiae growth inhibition, permissive control, measured here: maximum growth inhibition, stronger effect = higher value.
Assay [2] relates to Saccharomyces cerevisiae growth inhibition, permissive control. The description is as above.

Activity calls are given as the source filed them. How the calls were made is not given here.

Turning to `Cc1nc(N/N=C/c2ccccn2)sc1C`, the inhibition in assay [1] (at 50 µM) was 99.8%. In addition, the IC50 in assay [2] is 25.8 µM.
For the molecule `Cc1cc(C(=O)COC(=O)c2ccc[nH]c2=O)c(C)n1-c1ccccc1`, in assay [1] (at 50 µM), the inhibition came out at 67.1%. Moreover, in assay [2], the 50% inhibitory concentration (IC50) is 26.9 µM.
As for `CCOC(=O)c1c(N)sc2c(OC)c(Br)ccc12`, the inhibition in assay [1] (at 3.125 µM) was found to be 24.4%. Moreover, in assay [2], the IC50 was > 100 µM (inactive).
Turning to `Clc1ccc(CSC(Cn2ccnc2)c2ccc(Cl)cc2Cl)cc1` (stereo not drawn), in assay [1] (at 50 µM), the inhibition turned out to be 99.4%. Further, the concentration for half-maximal inhibition (IC50) in assay [2] was 0.365 µM.
Regarding `Cc1ccnn2cc3c(=O)n(C)c(=O)n(C)c3c12`, the inhibition in assay [1] (at 50 µM) was found to be 64.1%. The half-maximal inhibitory concentration (IC50) in assay [2] was 37.6 µM.
In the case of `c1ccc2c(c1)oc1c(N3CCOCC3)ncnc12`, in assay [1] (at 25 µM), the inhibition is 19.7%. In addition, in assay [2], the IC50 is > 100 µM (inactive).
As to `O=[N+]([O-])c1ccc(Sc2nc3ccccc3o2)c([N+](=O)[O-])c1`, in assay [1] (at 50 µM), the inhibition amounted to 48.3%. In addition, the IC50 in assay [2] was 50.1 µM.
In the case of `O=[N+]([O-])c1cccc(/C=N/n2cnnc2)c1O`, in assay [1] (at 50 µM), the inhibition came to 76.8%. Moreover, the IC50 in assay [2] is 21 µM.
Regarding `CNC(=O)Oc1cccc(-c2cn3cc(OC(=O)NC)ccc3n2)c1`, the inhibition in assay [1] (at 50 µM) came out at 97.6%. Moreover, the half-inhibitory concentration (IC50) in assay [2] is 6.45 µM.
Regarding `CCC1CCCCN1C(=O)CSc1nnc(-c2ccc(OC)cc2)o1` (stereo not drawn), in assay [1] (at 12.5 µM), the inhibition stood at 24.1%. The IC50 in assay [2] was > 100 µM (inactive).
`COc1ccc2c(c1)[nH]c1c(Cl)ncnc12`: the inhibition in assay [1] (at 0.195 µM) amounted to 21.3%. In addition, the IC50 in assay [2] is > 100 µM (inactive).
Regarding `CCN(CC)c1ccc(S(=O)(=O)N2CCOCC2)cc1NC(=O)CSc1cccc[n+]1[O-]`, in assay [1] (at 50 µM), the inhibition was found to be 96.5%. Moreover, in assay [2], the IC50 was 25.3 µM.
`O=C(OCn1ncc(Br)c(Br)c1=O)c1ccccc1Cl`: in assay [1] (at 0.781 µM), the inhibition worked out at 10.5%. Besides, the IC50 in assay [2] was > 100 µM (inactive).
Take `Cc1nn2c(-c3ccncc3)nnc2c2ccccc12`: the inhibition in assay [1] (at 25 µM) is 73.2%. In addition, the IC50 in assay [2] was 11.8 µM.
For the molecule `COc1ccc(/C=C2/C(=O)ON=C2c2ccccc2)cc1OC`, in assay [1] (at 25 µM), the inhibition turned out to be 27.4%. Also, the IC50 in assay [2] was > 100 µM (inactive).
Take `CC(=O)NC(CCS(C)(=O)=O)C(=O)Nc1ccc2c(c1)OCO2` (stereo not drawn): the inhibition in assay [1] (at 1.563 µM) is -0.58%. Further, the IC50 in assay [2] was > 100 µM (inactive).
For the molecule `COc1cc(C(=O)NC(=S)NNC(=O)c2cnccn2)cc(OC)c1OC`, the inhibition in assay [1] (at 50 µM) came out at 59.3%. Besides, the IC50 in assay [2] was 23.3 µM.
Consider `Cn1c(-c2ccco2)nc2cc3ccccc3cc21`, for which, in assay [1] (at 50 µM), the inhibition stood at 52.4%. Also, the IC50 in assay [2] is 49.4 µM.
Consider `Cc1cc(=O)[nH]c(-n2nc(C)cc2C)n1`, for which the inhibition in assay [1] (at 50 µM) was determined as 99.6%. The IC50 in assay [2] was 15.4 µM.
Turning to `COc1ccc(-c2nnc3c4ccccc4c(C)nn23)cc1`, the inhibition in assay [1] (at 1.563 µM) came to 11.6%. In addition, the IC50 in assay [2] is > 100 µM (inactive).
On to `CCN1/C(=C/c2ccc3cc(C)ccc3[n+]2CC)Sc2ccccc21`, for which the inhibition in assay [1] (at 50 µM) turned out to be 99.4%. For the same molecule, the IC50 in assay [2] was 3.44 µM.
Take `O=c1c2ccccc2nc2c3ccccc3c3nncn3n12`: the inhibition in assay [1] (at 6.25 µM) was 5.16%. Moreover, in assay [2], the IC50 is > 100 µM (inactive).
`COc1ccc2c(c1)c1nnc(SC)nc1n2C`: the inhibition in assay [1] (at 50 µM) stood at 63.9%. In assay [2], the concentration for half-maximal inhibition (IC50) is 48.3 µM.
For `O=C(CCSc1nnc(-c2ccncc2)o1)Nc1ccc(Cl)cc1`, the inhibition in assay [1] (at 12.5 µM) is 86.9%. In assay [2], the IC50 was 8.46 µM.
For the molecule `Cc1nc2ccc(NC(=O)c3cc([N+](=O)[O-])cc([N+](=O)[O-])c3Cl)cc2s1`, in assay [1] (at 50 µM), the inhibition came to 98.4%. Moreover, the IC50 in assay [2] was 15.2 µM.
In the same order, the values of `Cc1ccc(-n2c(Cl)c(Cl)nc(Cl)c2=O)cc1` are 102% and 14 µM.
Turning to `CC(C)(C)C(O)C(Oc1ccc(Cl)cc1)n1cncn1` (stereo not drawn), in assay [1] (at 12.5 µM), the inhibition worked out at 95.1%. Besides, in assay [2], the half-inhibitory concentration (IC50) is 2.15 µM.
Take `CCSc1nc2ccccc2n1S(=O)(=O)c1ccccc1`: the inhibition in assay [1] (at 3.125 µM) was 26.4%. Also, the IC50 in assay [2] is > 100 µM (inactive).
In the case of `CC(C)c1ccc(NC(=S)NCCc2c[nH]c3ccccc23)cc1`, the inhibition in assay [1] (at 3.125 µM) worked out at 20.3%. In addition, the IC50 in assay [2] is > 100 µM (inactive).
